Tested on: single cells from the ventral hippocampus (vHipp)
Assay: Single-cell RNA sequencing (scRNA-seq) of the ventral hippocampus after ketamine treatment; differential expression per cell type; on Mean-Ket: unit not given here
[1] = Astrocytes, ketamine 10 mg/kg i.p.
[2] = Astrocytes, ketamine 10 mg/kg i.p. vs saline
[3] = Endothelial, ketamine 10 mg/kg i.p.
[4] = Endothelial, ketamine 10 mg/kg i.p. vs saline

SMILES: CNC1(c2ccccc2Cl)CCCCC1=O (racemic) [ketamine, (R,S)-ketamine]
- Change (Aarsd1, Glut Neurons): Down
- Mean-Ket (Aarsd1, Glut Neurons): 1.682
- logFC (Aarsd1, Glut Neurons): −0.119
- Change (Acad9, Glut Neurons): Up
- Mean-Ket (Acad9, Glut Neurons): 1.372
- logFC (Acad9, Glut Neurons): 0.210
- Change (Aire, Glut Neurons): Down
- Mean-Ket (Aire, Glut Neurons): 2.157
- logFC (Aire, Glut Neurons): −0.116
- Change (Akap5, Astrocytes): Down
- Mean-Ket (Akap5, Astrocytes): 4.005
- logFC (Akap5, Astrocytes): −0.219
- Aire Mean-Ket [1]: 2.361
- Aktip Mean-Ket [1]: 1.656
- Atg2a Mean-Ket [1]: 1.418
- Calm1 Mean-Ket [1]: 2.021
- Calm2 Mean-Ket [1]: 1.730
- Capza2 Mean-Ket [1]: 3.001
- Cars2 Mean-Ket [1]: 2.703
- Cep89 Mean-Ket [1]: 2.822
- Cox7a2 Mean-Ket [1]: 1.052
- Elp6 Mean-Ket [1]: 1.701
- Fam193a Mean-Ket [1]: 2.684
- Gje1 Mean-Ket [1]: 0.961
- Gmeb1 Mean-Ket [1]: 2.962
- Hadhb Mean-Ket [1]: 1.956
- Haus8 Mean-Ket [1]: 1.269
- Lztr1 Mean-Ket [1]: 1.556
- Mettl3 Mean-Ket [1]: 2.842
- Mrp19 Mean-Ket [1]: 2.904
- Mterf3 Mean-Ket [1]: 1.289
- Nop58 Mean-Ket [1]: 2.828
- P3h3 Mean-Ket [1]: 2.495
- Parp1 Mean-Ket [1]: 2.675
- Polr2c Mean-Ket [1]: 2.613
- Ppan Mean-Ket [1]: 2.916
- Rfc2 Mean-Ket [1]: 0.929
- Rpap1 Mean-Ket [1]: 1.265
- Sec23ip Mean-Ket [1]: 2.886
- Slc23a1 Mean-Ket [1]: 2.421
- Snf8 Mean-Ket [1]: 2.945
- Sumf2 Mean-Ket [1]: 1.532
- Tecr Mean-Ket [1]: 1.562
- Tuba1b Mean-Ket [1]: 1.065
- Tubb2a Mean-Ket [1]: 0.960
- Uba2 Mean-Ket [1]: 1.413
- Vps8 Mean-Ket [1]: 2.087
- Zcchc4 Mean-Ket [1]: 0.999
- Aire Change [2]: Down
- Aire logFC [2]: −0.106
- Aktip Change [2]: Down
- Aktip logFC [2]: −0.119
- Atg2a Change [2]: Down
- Atg2a logFC [2]: −0.105
- Calm1 Change [2]: Down
- Calm1 logFC [2]: −0.155
- Calm2 Change [2]: Down
- Calm2 logFC [2]: −0.130
- Capza2 Change [2]: Down
- Capza2 logFC [2]: −0.082
- Cars2 Change [2]: Down
- Cars2 logFC [2]: −0.090
- Cep89 Change [2]: Down
- Cep89 logFC [2]: −0.075
- Cox7a2 Change [2]: Down
- Cox7a2 logFC [2]: −0.144
- Elp6 Change [2]: Down
- Elp6 logFC [2]: −0.124
- Fam193a Change [2]: Down
- Fam193a logFC [2]: −0.088
- Gje1 Change [2]: Down
- Gje1 logFC [2]: −0.108
- Gmeb1 Change [2]: Down
- Gmeb1 logFC [2]: −0.074
- Hadhb Change [2]: Down
- Hadhb logFC [2]: −0.103
- Haus8 Change [2]: Down
- Haus8 logFC [2]: −0.116
- Lztr1 Change [2]: Down
- Lztr1 logFC [2]: −0.130
- Mettl3 Change [2]: Down
- Mettl3 logFC [2]: −0.077
- Mrp19 Change [2]: Down
- Mrp19 logFC [2]: −0.074
- Mterf3 Change [2]: Down
- Mterf3 logFC [2]: −0.125
- Nop58 Change [2]: Down
- Nop58 logFC [2]: −0.094
- P3h3 Change [2]: Down
- P3h3 logFC [2]: −0.092
- Parp1 Change [2]: Down
- Parp1 logFC [2]: −0.079
- Polr2c Change [2]: Down
- Polr2c logFC [2]: −0.091
- Ppan Change [2]: Down
- Ppan logFC [2]: −0.074
- Rfc2 Change [2]: Down
- Rfc2 logFC [2]: −0.121
- Rpap1 Change [2]: Down
- Rpap1 logFC [2]: −0.125
- Sec23ip Change [2]: Down
- Sec23ip logFC [2]: −0.086
- Slc23a1 Change [2]: Down
- Slc23a1 logFC [2]: −0.099
- Snf8 Change [2]: Down
- Snf8 logFC [2]: −0.074
- Sumf2 Change [2]: Down
- Sumf2 logFC [2]: −0.127
- Tecr Change [2]: Down
- Tecr logFC [2]: −0.242
- Tuba1b Change [2]: Down
- Tuba1b logFC [2]: −0.115
- Tubb2a Change [2]: Down
- Tubb2a logFC [2]: −0.113
- Uba2 Change [2]: Down
- Uba2 logFC [2]: −0.113
- Vps8 Change [2]: Down
- Vps8 logFC [2]: −0.120
- Zcchc4 Change [2]: Down
- Zcchc4 logFC [2]: −0.112
- Change (Atp5a1, Glut Neurons): Down
- Mean-Ket (Atp5a1, Glut Neurons): 0.832
- logFC (Atp5a1, Glut Neurons): −0.162
- Change (Atp5j2, Glut Neurons): Down
- Mean-Ket (Atp5j2, Glut Neurons): 0.851
- logFC (Atp5j2, Glut Neurons): −0.169
- Change (Atp5j, Glut Neurons): Down
- Mean-Ket (Atp5j, Glut Neurons): 1.199
- logFC (Atp5j, Glut Neurons): −0.230
- Change (Atp6v0e2, Astrocytes): Down
- Mean-Ket (Atp6v0e2, Astrocytes): 1.529
- logFC (Atp6v0e2, Astrocytes): −0.138
- Change (Atp5h, Glut Neurons): Down
- Mean-Ket (Atp5h, Glut Neurons): 1.341
- logFC (Atp5h, Glut Neurons): −0.231
- Change (Atxn2, Glut Neurons): Down
- Mean-Ket (Atxn2, Glut Neurons): 1.752
- logFC (Atxn2, Glut Neurons): −0.131
- Change (Cars2, Glut Neurons): Down
- Mean-Ket (Cars2, Glut Neurons): 2.514
- logFC (Cars2, Glut Neurons): −0.095
- Change (Casc4, Glut Neurons): Down
- Mean-Ket (Casc4, Glut Neurons): 3.269
- logFC (Casc4, Glut Neurons): −0.109
- Change (Ccdc62, Glut Neurons): Down
- Mean-Ket (Ccdc62, Glut Neurons): 1.370
- logFC (Ccdc62, Glut Neurons): −0.131
- Change (Cep89, Glut Neurons): Down
- Mean-Ket (Cep89, Glut Neurons): 2.584
- logFC (Cep89, Glut Neurons): −0.104
- Change (Chn1, Glut Neurons): Down
- Mean-Ket (Chn1, Glut Neurons): 1.219
- logFC (Chn1, Glut Neurons): −0.192
- Change (Chpt1, Glut Neurons): Down
- Mean-Ket (Chpt1, Glut Neurons): 2.768
- logFC (Chpt1, Glut Neurons): −0.092
- Change (Cox6b1, Glut Neurons): Down
- Mean-Ket (Cox6b1, Glut Neurons): 1.063
- logFC (Cox6b1, Glut Neurons): −0.161
- Change (Cpe, Glut Neurons): Down
- Mean-Ket (Cpe, Glut Neurons): 1.060
- logFC (Cpe, Glut Neurons): −0.123
- Change (Cxcr2, Glut Neurons): Down
- Mean-Ket (Cxcr2, Glut Neurons): 2.721
- logFC (Cxcr2, Glut Neurons): −0.098
- Change (D3Ertd254e, Glut Neurons): Down
- Mean-Ket (D3Ertd254e, Glut Neurons): 1.540
- logFC (D3Ertd254e, Glut Neurons): −0.179
- Change (D6Wsu163e, Glut Neurons): Down
- Mean-Ket (D6Wsu163e, Glut Neurons): 2.314
- logFC (D6Wsu163e, Glut Neurons): −0.101
- Change (Dars, Glut Neurons): Down
- Mean-Ket (Dars, Glut Neurons): 1.380
- logFC (Dars, Glut Neurons): −0.115
- Change (Dhx30, Glut Neurons): Down
- Mean-Ket (Dhx30, Glut Neurons): 1.310
- logFC (Dhx30, Glut Neurons): −0.133
- Change (Dpp10, Glut Neurons): Up
- Mean-Ket (Dpp10, Glut Neurons): 1.344
- logFC (Dpp10, Glut Neurons): 0.216
- Change (Eef1akmt3, Astrocytes): Up
- Mean-Ket (Eef1akmt3, Astrocytes): 1.918
- logFC (Eef1akmt3, Astrocytes): 0.336
- Change (Eif4a2, Glut Neurons): Down
- Mean-Ket (Eif4a2, Glut Neurons): 1.524
- logFC (Eif4a2, Glut Neurons): −0.234
- Change (Enah, Glut Neurons): Down
- Mean-Ket (Enah, Glut Neurons): 2.212
- logFC (Enah, Glut Neurons): −0.108
- Akap5 Mean-Ket [3]: 3.573
- Eef1akmt3 Mean-Ket [3]: 1.735
- Ilf2 Mean-Ket [3]: 1.206
- Lrrc17 Mean-Ket [3]: 2.859
- Saa3 Mean-Ket [3]: 1.407
- Slco1a4 Mean-Ket [3]: 1.231
- Vps8 Mean-Ket [3]: 1.667
- Akap5 Change [4]: Down
- Akap5 logFC [4]: −0.447
- Eef1akmt3 Change [4]: Up
- Eef1akmt3 logFC [4]: 0.511
- Ilf2 Change [4]: Up
- Ilf2 logFC [4]: 0.361
- Lrrc17 Change [4]: Down
- Lrrc17 logFC [4]: −0.407
- Saa3 Change [4]: Up
- Saa3 logFC [4]: 0.366
- Slco1a4 Change [4]: Up
- Slco1a4 logFC [4]: 0.415
- Vps8 Change [4]: Down
- Vps8 logFC [4]: −0.398
- Change (Exosc5, Glut Neurons): Down
- Mean-Ket (Exosc5, Glut Neurons): 1.196
- logFC (Exosc5, Glut Neurons): −0.109
- Change (Fam193a, Glut Neurons): Down
- Mean-Ket (Fam193a, Glut Neurons): 2.472
- logFC (Fam193a, Glut Neurons): −0.101
- Change (Fgd4, Glut Neurons): Up
- Mean-Ket (Fgd4, Glut Neurons): 2.397
- logFC (Fgd4, Glut Neurons): 0.144
- Change (Foxr1, Glut Neurons): Down
- Mean-Ket (Foxr1, Glut Neurons): 2.380
- logFC (Foxr1, Glut Neurons): −0.113
- Change (Fubp1, Glut Neurons): Down
- Mean-Ket (Fubp1, Glut Neurons): 2.828
- logFC (Fubp1, Glut Neurons): −0.093
- Change (Furin, Glut Neurons): Down
- Mean-Ket (Furin, Glut Neurons): 1.335
- logFC (Furin, Glut Neurons): −0.132
- Change (Gapdh-ps15, Astrocytes): Down
- Mean-Ket (Gapdh-ps15, Astrocytes): 1.333
- logFC (Gapdh-ps15, Astrocytes): −0.157
- Change (Gclm, Glut Neurons): Down
- Mean-Ket (Gclm, Glut Neurons): 0.984
- logFC (Gclm, Glut Neurons): −0.113
- Change (Gmeb1, Glut Neurons): Down
- Mean-Ket (Gmeb1, Glut Neurons): 2.782
- logFC (Gmeb1, Glut Neurons): −0.087
- Change (Golga3, Astrocytes): Down
- Mean-Ket (Golga3, Astrocytes): 1.515
- logFC (Golga3, Astrocytes): −0.136
- Change (H2-T23, Glut Neurons): Down
- Mean-Ket (H2-T23, Glut Neurons): 1.757
- logFC (H2-T23, Glut Neurons): −0.173
- Change (Hook3, Glut Neurons): Down
- Mean-Ket (Hook3, Glut Neurons): 2.556
- logFC (Hook3, Glut Neurons): −0.089
- Change (Hsd3b2, Glut Neurons): Up
- Mean-Ket (Hsd3b2, Glut Neurons): 1.162
- logFC (Hsd3b2, Glut Neurons): 0.193
- Change (Il17ra, Glut Neurons): Up
- Mean-Ket (Il17ra, Glut Neurons): 1.490
- logFC (Il17ra, Glut Neurons): 0.252
- Change (Ilf2, Astrocytes): Up
- Mean-Ket (Ilf2, Astrocytes): 1.350
- logFC (Ilf2, Astrocytes): 0.295
- Change (Ipo7, Glut Neurons): Down
- Mean-Ket (Ipo7, Glut Neurons): 1.687
- logFC (Ipo7, Glut Neurons): −0.119
- Change (Kcnj16, Glut Neurons): Up
- Mean-Ket (Kcnj16, Glut Neurons): 1.052
- logFC (Kcnj16, Glut Neurons): 0.227
- Change (Kif3a, Glut Neurons): Down
- Mean-Ket (Kif3a, Glut Neurons): 1.198
- logFC (Kif3a, Glut Neurons): −0.141
- Change (Loxl2, Glut Neurons): Down
- Mean-Ket (Loxl2, Glut Neurons): 2.605
- logFC (Loxl2, Glut Neurons): −0.098
- Change (Lrrc17, Astrocytes): Down
- Mean-Ket (Lrrc17, Astrocytes): 3.291
- logFC (Lrrc17, Astrocytes): −0.192
- Change (Lsm8, Glut Neurons): Down

Reference: patent US20240065988A1, “COMBINED USE OF KETAMINE AND RETIGABINE (EZOGABINE) FOR THE TREATMENT OF PSYCHIATRIC DISORDERS” (Yeda Research and Development Co. Ltd., priority 2021, published 2024)
